Laboratory results published in US5424395A (priority 1992, dated 1995).
“Also recorded” adds a separate entry of the source. Where no end group is shown, it is not given here.

Assays:
[1] = extracellular fluid (ECF) from tobacco leaf in 50 mM Tris, pH 7.4; conditions: 37° C., up to one hour
[2] = system: Erwinia carotovora carotovora strain SR319 (Ecc SR319); assay: Antibacterial bioassay, minimum complete inhibitory concentration (MCIC); format: cell-based; conditions: for activity against Ecc SR319 (in words): even at concentrations higher than 150 micrograms AMPPP/mL; for MEAN MCIC VALUE: lowest peptide concentration with no bacterial growth, after 20 hours, Luria broth, 28° C., mean of at least three replicate experiments
Description: Erwinia carotovora carotovora strain SR319 (Ecc SR319) (a gift of Dr. C. H. Liao, USDA-ARS, Philadelphia, Pa.) was streaked on a plate of LB agar and grown overnight at 28° C. After 24 hours, a loopful of Ecc SR319 was picked from the agar plate and was added to 3 mL of Luria broth (10 g Bacto-tryptone, 5 g Bacto-yeast extract, and 10 g sodium chloride per liter of solution; autoclaved sterile) in a capped, sterile 10 mL test tube. This culture was grown overnight before its optical density at 630 nm was recorded using a Dynatech MR600 microplate reader (Dynatech Laboratories, Inc., Alexandria, Va.). A portion of the overnight culture was adjusted with Luria broth to obtain a culture with an optical density at 630 nm of 0.2. About 250 microliters of this culture was added to 2250 microliters of Luria broth in a capped, sterile 10 mL test tube before this diluted culture was grown for 3 hours at 28° C. in a shaking incubator. The optical density at 630 nm of the freshly grown culture was recorded and a portion of this mid-logarithmic growth phase culture was diluted 1000-fold with Luria broth to an approximate concentration of about 10^5 colony forming units per mL of culture. About 85 microliters of this diluted culture was added to 12 wells in a 96 well microtiter plate for each AMPPP to be tested, with 1-4 replicate sets of 12 wells prepared for each AMPPP within a single experiment. Stock solutions of each AMPPP were prepared at a concentration of 1 mg/mL and 0-15 microliters of each peptide stock solution were added to a single well in the microtiter plate followed by a sufficient volume of water to bring the total well volume to 100 microliters. Typical peptide volumes assayed were 0, 1, 2, 3, 4, 5, 6, 7, 8, 9, 10 and 15 microliters, which corresponds to a final peptide concentration in the range of 0-150 micrograms/mL. The microtiter plates were sealed with parafilm and incubated on a shaking platform at 28° C. for 44 hours. The optical density of each Ecc SR319 culture well was recorded at 20 hours and then at 44 hours. A minimum complete inhibitory concentration (MCIC) was then determined for each replicate set of varying peptide concentrations for each AMPPP whereby the MCIC is defined as the lowest peptide concentration at which no bacterial growth was observed. Table I lists mean MCIC values computed after 20 hours of treatment from at least three replicate experiments with each AMPPP. "Met(S)(O)" and "Met(R)(O)" refer to the diastereomeric forms of a methionine sulfoxide residue.
Although most of the AMPPP compounds listed in Table I were greater than 95% homogeneous following reverse phase HPLC purification, AMPPPs #24-26 and #28 were only 50-80% pure following partial purification and salt exchange by ion exchange chromatography.

[3] = system: P3 Fusarium; assay: Antifungal bioassay (spore germination MCIC); format: cell-based, P3 Fusarium (field isolate); conditions: lowest concentration with no spore germination, after 24 hours
Description: (§1) Fungi are grown on an appropriate medium, in this case a potato dextrose agar plate, for several weeks. At the end of that period, the plate was flooded with about 5 mL of sterile distilled water to harvest spores. The spore concentration was determined by use of a hemocytometer and the spore suspension was stored in a sterile tube at 4° C. until it was needed. Then 82 microliters of potato dextrose broth and 3 microliters of spore suspension (ranging from 10^5 to 10^7 spores total) was then added to 12 wells in a 96 well microtiter plate for each AMPPP to be tested, with 1-4 replicate sets of 12 wells prepared for each AMPPP within a single experiment. […] The amount of spore germination and fungal growth was recorded as a qualitative measurement at each observation time using a system of pluses and minuses: [-] meant no germination having occurred, [+] meant swollen spores with an extended germ tube, [++] meant the beginnings of mycelial growth with the overall appearance of a loose lattice, and [+++] meant a dense mycelial growth with the overall appearance of a thick opaque meshwork. The MCIC value for each AMPPP tested was then recorded, where the MCIC value is defined as the lowest peptide concentration at which no spore germination occurred (rating=[-]). […]

[4] = system: Trichoderma reesei; assay: Antifungal bioassay (spore germination MCIC); format: cell-based; conditions: lowest concentration with no spore germination, after 24 hours
Description: as §1

[5] = system: P3 Fusarium; assay: Effect of ECF or spent media on antifungal activity of AMPPPs; format: cell-based; conditions: ECF source Tobacco Leaf, 10% (v/v); comparison of MCIC with and without ECF
Text: It is critical to understand the effect of plant proteolytic enzymes on AMPPP activity because any AMPPP applied to crop plants will be in contact with plant tissues and any associated plant proteases. It is important to assess the bioactivity of an AMPPP which may be cleaved by one or more plant proteases as well as to recognize that such an event has occurred. An extract of extracellular fluid (ECF) as described in Example 14 is a useful reagent in determining such loss of antimicrobial activity of AMPPPs due to exposure to plant proteases in the extracellular compartment of plant tissues. Bioassay experiments were conducted with 300-1000 pregerminated P3 Fusarium spores essentially as described in Example 13 for various AMPPPs exposed to ECF from several crop species, or exposed to spent media collected as a supernatant from centrifuged three-day-old P3 Fusarium cultures grown in potato dextrose broth (PDB), corn stalk medium (CSM), or water as detailed below. The only major difference in the bioassay method used from that described in Example 13 was that the bioassay was conducted in a total culture volume of 10 microliters rather than 100 microliters. ECF was present in these bioassays at a final concentration of 10% (v/v) and was added concurrently with an AMPPP to the Fusarium spores at various AMPPP concentrations. […]

[6] = system: extracellular plant proteases; assay: Resistance to proteolytic degradation by leaf extracellular fluid (ECF), HPLC; format: in vitro ADME, tobacco; conditions: 2.5% (v/v) ECF, 50 mM Tris pH 7.4, 37° C., one hour, relative to area of parent peak with no added ECF
Text: To determine the sensitivity of AMPPPs to extracellular proteases, and to determine the site of processing by these proteases, a system was designed to obtain extracellular fluid from leaves of maize, tobacco, and potato and to use these to test the stability of AMPPPs.
Extracellular fluid (ECF) was obtained in accordance with Z. Klement, "Method Of Obtaining Fluid From the Intercellular Space of Foliage and the Fluid's Merit As Substrate For Phytobacterial Pathogens," supra by cutting interveinal pieces from tobacco leaf after they were rinsed in deionized water. The segments were submerged in water in a vacuum desiccator and vacuum was applied for five to 10 minutes. The vacuum was released slowly, the leaves were blotted dry and four to five pieces were rolled and placed in a 50 mL disposable syringe barrel cut down so as to be able to fit in a swinging bucket centrifuge rotor. The syringe barrel was placed in a 50 mL screw cap conical centrifuge tube and centrifuged in a swinging bucket rotor at 500×g for 30 minutes. […]
Peptides were analyzed by reverse phase chromatography on a 4.6 mm×250 mm Vydac C-4 protein column (Nest Group, Southboro, Mass.) using a 0% to 60% acetonitrile gradient in 0.1% TFA in 30 minutes on a Hewlett-Packard HP1090 high pressure liquid chromatograph (Hewlett-Packard, Avondale, Pa.). […] These peptides were purified and analyzed by FAB-MS and amino acid analysis. […]

GIGKFLFSAKKFGKAFVGEIMNS-OH
cleaved bond [1]: Phe7-Ser8

[Met^21 (S)(O)Mag 2-OH [AMPPP 6]
activity against Ecc SR319 (in words) [2]: not active
MEAN MCIC VALUE [2]: > 150 micrograms/mL
Mean MCIC Values against: P3 Fusarium (10^7 spores) [3]: 40 micrograms/mL
Mean MCIC Values against: Trichoderma reesei (10^6 spores) [4]: 75 micrograms/mL
Approximate % Reduction in Antifungal Activity by ECF [5]: 50%

GIGKFLHEAKKFGKAFVGEIMNS-OH
cleaved bond [1]: His7-Glu8

GIGKFLHSAGKFGKAFVGEIMKS-OH
cleaved bond [1]: His7-Ser8

GIGKFLHTAKKFGKAFVGEIMNS-OH
cleaved bond [1]: His7-Thr8

GIGKFLRSAKKFGKAFVGEIMNS-OH
cleaved bond [1]: Arg7-Ser8

GIGKFLHAAKKFGKAFVGEIMNS-OH
cleaved bond [1]: His7-Ala8

GIGKFLHSAKKFGKAFVGEIMNS-OH
cleaved bond [1]: His7-Ser8; also recorded: Met21-Asn22

GIGKFLHSAKKFGKAFVGEIMNS [AMPPP 1, Magainin 2-OH]
Total Area Under Chromatogram Peaks: Fragment Gly^1 Xaa^7 [6]: 15.2%
remaining at 1 h ([6]; cerebrospinal or other body fluid, read-out: Total Area Under Chromatogram Peaks: Parent AMPPP): 54.4%

GIGKFLKSAKKFGKAFVGEIMNS-OH
cleaved bond [1]: Lys7-Ser8

[Met^21 (R)(O)]Mag 2-OH [AMPPP 7]
activity against Ecc SR319 (in words) [2]: not active
MEAN MCIC VALUE [2]: > 150 micrograms/mL
Mean MCIC Values against: P3 Fusarium (10^7 spores) [3]: 50 micrograms/mL
Mean MCIC Values against: Trichoderma reesei (10^6 spores) [4]: 75 micrograms/mL
